The values that follow come from patent US20260217735A1, “HETEROCYCLES AND USES THEREOF” (Kumquat Biosciences Inc., priority 2023, published 2026).

One test deals with T1, KRAS G12S (Homo sapiens, UniProt P01116, G12S).
T1 construct: made in house; host or cells: E. coli, e.g. BL21 (DE3)
Briefly: HTRF assay, KRAS G12S interaction with SOS1. The class given is biochemical. As to conditions: bins <500 nM / 500 nM to 1000 nM, read-out: Inhibition of KRAS G12S (IC50). In general terms: Time-resolved FRET reads energy transfer from a long-lived donor to a nearby acceptor.

The next test concerns the target T2, KRAS G12D (Homo sapiens, UniProt P01116, G12D).
T2 construct: made in house; host or cells: E. coli, e.g. BL21 (DE3)
Description: HTRF assay, KRAS G12D interaction with SOS1. The class given is biochemical. As to conditions: bins <500 nM / 500 nM to 1000 nM, read-out: Inhibition of KRAS G12D (IC50).

A further test has as its target T3, KRAS G12V (Homo sapiens, UniProt P01116, G12V).
T3 construct: made in house; host or cells: E. coli, e.g. BL21 (DE3)
Briefly: HTRF assay, KRAS G12V interaction with SOS1. The following applies: bins <500 nM / 500 nM to 1000 nM, read-out: Inhibition of KRAS G12V (IC50). The class given is biochemical.

The test system of a further test is MiaPaca2 cells. Description: Ras cellular assay, growth of cells with K-Ras G12C mutation. The class given is cell-based. As to conditions: Homo sapiens, MIA PaCa-2; cell proliferation assay; bins ≤500 nM / >500 nM; read-out: Inhibition of MiaPaca2 Cells (IC50). Here is the method:
For example, this assay can be also used to assess selective growth inhibition of a mutant Ras protein relative to a wildtype or different mutant Ras protein.
MIA PaCa-2 (ATCC CRL-1420) and NCI-H1792 (ATCC CRL-5895) cell lines comprise a G12C mutation and can be used to assess Ras cellular signaling in vitro, e.g., in response to an inhibitor compound of the present disclosure. […] MIA PaCa-2 culture medium is prepared with DMEM/Ham's F12 (e.g., with stable glutamine, 10% FCS, and 2.5% horse serum. NCI-H1792 culture medium is prepared with RPMI 1640 (e.g., with stable glutamine) and 10% FCS.
On a first day (e.g., Day 1), Softagar (Select Agar, Invitrogen, 3% in ddH2O autoclaved) is boiled and tempered at 48° C. Appropriate culture medium (i.e., medium) is tempered to 37° C. Agar (3%) is diluted 1:5 in medium (=0.6%) and plated into 96 well plates (Corning, #3904), then incubated at room temperature for agar solidification. A 3% agar is diluted to 0.25% in medium (1:12 dilution) and tempered at 42° C. Cells are trypsinized, counted, and tempered at 37° C. The cells (e.g., MIA PaCa-2 at about 125-150 cells, NCI-H1792 at about 1000 cells) are resuspended in […] 0.25% Agar and plated, followed by incubation at room temperature for agar solidification. The wells are overlaid with […] of the medium. Sister wells in a separate plate are plated for time zero determination. All plates are incubated overnight at 37° C. and 5% CO2.
On a second day (e.g., Day 2), time zero values are measured. A […] volume of Cell Titer 96 Aqueous Solution (Promega) is added to each well and incubated in the dark at 37° C. and 5% CO2. Absorption can be measured at 490 nm and reference wavelength 660 nm. DMSO-prediluted test compounds are added to wells of interest, e.g., with HP Dispenser, to one or more desired concentrations (e.g., a final DMSO concentration of 0.3%).
On a tenth day (e.g., Day 10), absorption by wells treated with the test compounds and control wells are measured with, for example, Cell Titer 96 AQueous and analyzed in comparison to the time zero measurements. The IC50 values are determined using the four parameter fit. The resulting IC50 value is a measurement of the ability of the test compound to reduce cell growth of Ras-driven cells (e.g., tumor cell lines) in vitro and/or in vivo.

The next test has as its target T4, KRAS WT (Homo sapiens, UniProt P01116).
T4 construct: made in house; host or cells: E. coli, e.g. BL21 (DE3)
Description: HTRF assay, wildtype KRAS interaction with SOS1. It counts as biochemical. As to conditions: bins <500 nM / 500 nM to 1000 nM, read-out: Inhibition of KRAS WT (IC50).

The term IC50 denotes the concentration at which inhibition is half-maximal.

T4 sequence (P01116 1-188 isoform P01116-2): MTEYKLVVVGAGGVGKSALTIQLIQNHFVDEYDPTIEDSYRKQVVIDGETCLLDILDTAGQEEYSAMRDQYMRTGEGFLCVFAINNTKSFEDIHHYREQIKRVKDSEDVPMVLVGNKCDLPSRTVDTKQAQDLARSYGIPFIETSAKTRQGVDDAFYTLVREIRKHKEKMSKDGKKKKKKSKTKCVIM
T3 sequence (P01116 1-188 isoform P01116-2 G12V): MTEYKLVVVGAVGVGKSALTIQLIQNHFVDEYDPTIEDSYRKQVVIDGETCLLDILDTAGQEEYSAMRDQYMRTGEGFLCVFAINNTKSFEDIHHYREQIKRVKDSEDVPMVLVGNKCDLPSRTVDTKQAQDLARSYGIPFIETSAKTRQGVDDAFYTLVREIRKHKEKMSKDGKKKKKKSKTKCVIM
T1 sequence (P01116 1-188 isoform P01116-2 G12S): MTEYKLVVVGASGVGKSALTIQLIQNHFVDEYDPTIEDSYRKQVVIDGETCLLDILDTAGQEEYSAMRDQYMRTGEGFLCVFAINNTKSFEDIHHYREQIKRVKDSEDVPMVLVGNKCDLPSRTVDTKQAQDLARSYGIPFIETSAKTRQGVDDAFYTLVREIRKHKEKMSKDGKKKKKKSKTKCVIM
T2 sequence (P01116 1-188 isoform P01116-2 G12D): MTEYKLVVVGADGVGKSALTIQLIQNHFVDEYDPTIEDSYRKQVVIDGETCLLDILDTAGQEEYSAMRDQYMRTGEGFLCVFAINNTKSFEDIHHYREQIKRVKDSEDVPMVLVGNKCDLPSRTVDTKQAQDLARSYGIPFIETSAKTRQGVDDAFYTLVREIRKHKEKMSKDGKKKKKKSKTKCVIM

`CCN(c1nc(OC[C@@]23CCCN2C[C@H](F)C3)nc2c(F)c(-c3ccc(F)c4sc(N)c(C#N)c34)c(Cl)cc12)[C@@H]1CCN(C(=O)n2cnc(C)c2)[C@@H]1C` [Compound 108, 2-amino-4-(6-chloro-4-(ethyl((2R,3R)-2-methyl-1-(4-methyl-1H-imidazole-1-carbonyl)pyrrolidin-3-yl)amino)-8-fluoro-2-(((2R,7aS)-2-fluorotetrahydro-1H-pyrrolizin-7a(5H)-yl)methoxy)quinazolin-7-yl)-7-fluorobenzo[b]thiophene-3-carbonitrile]: the IC50 was below 500 nM at KRAS G12S; below 500 nM at KRAS G12D; below 500 nM at KRAS G12V; at most 500 nM in the test on MiaPaca2 cells; below 500 nM at KRAS WT.

For the molecule `Cc1cn(C(=O)N(C)CC2(F)CN(c3nc(OC[C@@]45CCCN4C[C@H](F)C5)nc4c(F)c(-c5ccc(F)c6sc(N)c(C#N)c56)c(Cl)cc34)C2)cn1` [Compound 109, N-((1-(7-(2-amino-3-cyano-7-fluorobenzo[b]thiophen-4-yl)-6-chloro-8-fluoro-2-(((2R,7aS)-2-fluorotetrahydro-1H-pyrrolizin-7a(5H)-yl)methoxy)quinazolin-4-yl)-3-fluoroazetidin-3-yl)methyl)-N,4-dimethyl-1H-imidazole-1-carboxamide], the IC50 is below 500 nM at KRAS G12S; below 500 nM at KRAS G12D; below 500 nM on KRAS G12V; at most 500 nM with MiaPaca2 cells; below 500 nM on KRAS WT.

As for `CCN(c1nc(OC[C@@]23CCCN2C[C@H](F)C3)nc2c(F)c(-c3ccc(F)c4sc(N)c(C#N)c34)c(C(F)(F)F)cc12)[C@@H]1CCN(C(=O)n2cnc(C)c2C)[C@@H]1C` [Compound 110, 2-amino-4-(4-(((2R,3R)-1-(4,5-dimethyl-1H-imidazole-1-carbonyl)-2-methylpyrrolidin-3-yl)(ethyl)amino)-8-fluoro-2-(((2R,7aS)-2-fluorotetrahydro-1H-pyrrolizin-7a(5H)-yl)methoxy)-6-(trifluoromethyl)quinazolin-7-yl)-7-fluorobenzo[b]thiophene-3-carbonitrile], the IC50 was below 500 nM on KRAS G12S; below 500 nM on KRAS G12D; below 500 nM on KRAS G12V; at most 500 nM in the test on MiaPaca2 cells; below 500 nM on KRAS WT.

With `Cc1c(C#N)ncn1C(=O)N1C[C@]2(CCCCN(c3nc(OC[C@@]45CCCN4C[C@H](F)C5)nc4c(F)c(-c5ccc(F)c6sc(N)c(C#N)c56)c(Cl)cc34)C2)[C@H]1C1(C)CC1` [Compound 111, 1-((1R,4R)-6-(7-(2-amino-3-cyano-7-fluorobenzo[b]thiophen-4-yl)-6-chloro-8-fluoro-2-(((2R,7aS)-2-fluorotetrahydro-1H-pyrrolizin-7a(5H)-yl)methoxy)quinazolin-4-yl)-1-(1-methylcyclopropyl)-2,6-diazaspiro[3.6]decane-2-carbonyl)-5-methyl-1H-imidazole-4-carbonitrile], the IC50 was below 500 nM at KRAS G12S; below 500 nM on KRAS G12D; below 500 nM on KRAS G12V; at most 500 nM in the test on MiaPaca2 cells; below 500 nM at KRAS WT.

Take `C[C@@H]1[C@H](N(C)c2nc(OC[C@@]34CCCN3C[C@H](F)C4)nc3c(F)c(-c4ccc(F)c5sc(N)c(C#N)c45)c(Cl)cc23)CCN1C(=O)n1cnc(F)n1` [Compound 112, 2-amino-4-(6-chloro-8-fluoro-4-(((2R,3R)-1-(3-fluoro-1H-1,2,4-triazole-1-carbonyl)-2-methylpyrrolidin-3-yl)(methyl)amino)-2-(((2R,7aS)-2-fluorotetrahydro-1H-pyrrolizin-7a(5H)-yl)methoxy)quinazolin-7-yl)-7-fluorobenzo[b]thiophene-3-carbonitrile]: the IC50 on KRAS G12S is below 500 nM; at KRAS G12D, below 500 nM; on KRAS G12V, below 500 nM; in the test on MiaPaca2 cells, at most 500 nM; at KRAS WT, below 500 nM.

Regarding `CCN(c1nc(OC[C@@]23CCCN2C[C@H](F)C3)nc2c(F)c(-c3ccc(F)c4sc(N)c(C#N)c34)c(Cl)cc12)[C@@H]1CCN(C(=O)n2cnc(F)n2)[C@@H]1C` [Compound 115, 2-amino-4-(6-chloro-4-(ethyl((2R,3R)-1-(3-fluoro-1H-1,2,4-triazole-1-carbonyl)-2-methylpyrrolidin-3-yl)amino)-8-fluoro-2-(((2R,7aS)-2-fluorotetrahydro-1H-pyrrolizin-7a(5H)-yl)methoxy)quinazolin-7-yl)-7-fluorobenzo[b]thiophene-3-carbonitrile], the concentration for half-maximal inhibition (IC50) at KRAS G12S was below 500 nM; at KRAS G12D, below 500 nM; at KRAS G12V it was below 500 nM; in the test on MiaPaca2 cells, at most 500 nM; at KRAS WT it was below 500 nM.

As for `Cc1nccn1C(=O)N1CC[C@@]12CCN(c1nc(OC[C@@]34CCCN3C[C@H](F)C4)nc3c(F)c(-c4ccc(F)c5sc(N)c(C#N)c45)c(Cl)cc13)C2` [Compound 116, 2-amino-4-(6-chloro-8-fluoro-2-(((2R,7aS)-2-fluorotetrahydro-1H-pyrrolizin-7a(5H)-yl)methoxy)-4-((R)-1-(2-methyl-1H-imidazole-1-carbonyl)-1,6-diazaspiro[3.4]octan-6-yl)quinazolin-7-yl)-7-fluorobenzo[b]thiophene-3-carbonitrile], the IC50 on KRAS G12S is below 500 nM; at KRAS G12D, below 500 nM; on KRAS G12V, below 500 nM; in the test on MiaPaca2 cells, at most 500 nM; at KRAS WT it was below 500 nM.

For `CN(c1nc(OC[C@@]23CCCN2C[C@H](F)C3)nc2c(F)c(-c3ccc(F)c4sc(N)c(C#N)c34)c(Cl)cc12)[C@@H]1CCN(C(=O)n2ccnc2)C1` [Compound 118, 4-(4-(((R)-1-(1H-imidazole-1-carbonyl)pyrrolidin-3-yl)(methyl)amino)-6-chloro-8-fluoro-2-(((2R,7aS)-2-fluorotetrahydro-1H-pyrrolizin-7a(5H)-yl)methoxy)quinazolin-7-yl)-2-amino-7-fluorobenzo[b]thiophene-3-carbonitrile], the IC50 on KRAS G12S was below 500 nM; on KRAS G12D, below 500 nM; at KRAS G12V, below 500 nM; with MiaPaca2 cells, at most 500 nM; at KRAS WT it was below 500 nM.

As for `N#Cc1c(N)sc2c(F)ccc(-c3c(Cl)cc4c(N5CCCCC6(CN(C(=O)n7ccnc7Br)C6)C5)nc(OC[C@@]56CCCN5C[C@H](F)C6)nc4c3F)c12` [Compound 119, 2-amino-4-(4-(2-(2-bromo-1H-imidazole-1-carbonyl)-2,6-diazaspiro[3.6]decan-6-yl)-6-chloro-8-fluoro-2-(((2R,7aS)-2-fluorotetrahydro-1H-pyrrolizin-7a(5H)-yl)methoxy)quinazolin-7-yl)-7-fluorobenzo[b]thiophene-3-carbonitrile], the concentration for half-maximal inhibition (IC50) at KRAS G12S is below 500 nM; at KRAS G12D it was below 500 nM; on KRAS G12V it was below 500 nM; with MiaPaca2 cells it was at most 500 nM; at KRAS WT, below 500 nM.

For `Cc1nccn1C(=O)N1CC[C@@H](N(C)c2nc(OC[C@@]34CCCN3C[C@H](F)C4)nc3c(F)c(-c4ccc(F)c5sc(N)c(C#N)c45)c(Cl)cc23)[C@H]1C` [Compound 120, 2-amino-4-(6-chloro-8-fluoro-2-(((2R,7aS)-2-fluorotetrahydro-1H-pyrrolizin-7a(5H)-yl)methoxy)-4-(methyl((2R,3R)-2-methyl-1-(2-methyl-1H-imidazole-1-carbonyl)pyrrolidin-3-yl)amino)quinazolin-7-yl)-7-fluorobenzo[b]thiophene-3-carbonitrile], the IC50 on KRAS G12S is below 500 nM; at KRAS G12D, below 500 nM; on KRAS G12V it was below 500 nM; with MiaPaca2 cells, at most 500 nM; at KRAS WT, below 500 nM.
